In publication PMC5361737, “Potent and Selective KDM5 Inhibitor Stops Cellular Demethylation of H3K4me3 at Transcription Start Sites and Proliferation of MM1S Myeloma Cells” (Cell Chemical Biology, 2017):

How the values were obtained:
PAMPA = type: in vitro ADME
[1] = test system: endogenous KDM5 demethylases; experiment: IF assay of endogenous H3K4me3 in untransfected HeLa cells; type: cell-based, human; conditions: 48 hr
Description: In brief, cells were transiently transfected with either the FLAG-tagged WT or mutant demethylase described above, using Lipofectamine 2000 (Life Technologies). Four hours after transfection the cells were treated with serial dilutions of compound for 24 hr. The cells were subsequently fixed and stained with an anti-FLAG antibody (Sigma F3165) as well as an anti-methylated histone antibody (H3K4me3 Diagenode C15410003, H3K9me2 Abcam ab1220, H3K9me3 Abcam ab8898, H3K27me3 Millipore 07–449, or H3K36me2 Active Motif 61019). The secondary antibodies were labeled with either Alexa Fluor 488 or 568 (Life Technologies). Image acquisition was conducted using the Operetta High Content Imaging System (PerkinElmer) and image analysis was performed with the Columbus software (PerkinElmer). After the DAPI-stained nuclei were automatically identified, a minimum threshold for anti-FLAG intensity was set so that only cells highly expressing the demethylase were analyzed. Assays assessing the endogenous H3K4me3 methyl mark changes were performed accordingly without overexpressing KDM5 after compounds treatment for 48 hr.
Figure S1 related to Figure 2 Inhibition of KDM4/5 mediated H3K4me3
(A) EC50 curves of KDOAM-20, KDOAM-21 and KDOAM-32 in KDM5B and KDM4C (B)
and KDOAM-32 in untransfected HeLa cells.
(1 picture or pasted object on this page, not shown here)

AT1 (h) = AT1 (h) (Homo sapiens, UniProt P30556); experiment: Cerep Express Panel, antagonist radioligand; type: binding; conditions: read-out: % Inhibition of reference (10 µM)
Sequence of AT1 (h) (P30556 whole entry): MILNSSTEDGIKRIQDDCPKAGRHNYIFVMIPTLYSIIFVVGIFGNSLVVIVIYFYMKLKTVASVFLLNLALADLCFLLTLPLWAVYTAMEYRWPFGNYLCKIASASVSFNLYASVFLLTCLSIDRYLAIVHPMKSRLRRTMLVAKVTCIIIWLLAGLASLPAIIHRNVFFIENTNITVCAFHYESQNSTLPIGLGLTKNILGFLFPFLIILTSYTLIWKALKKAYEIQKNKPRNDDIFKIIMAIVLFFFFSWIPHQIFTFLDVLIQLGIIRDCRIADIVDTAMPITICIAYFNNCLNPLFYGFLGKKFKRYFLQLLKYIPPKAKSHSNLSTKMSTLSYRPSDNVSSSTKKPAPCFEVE

5-HT transporter (h) = target: T1, 5-HT transporter (h) (Homo sapiens, UniProt P31645); experiment: Cerep Express Panel, antagonist radioligand; type: binding; conditions: read-out: % Inhibition of reference (10 µM)
T1 construct: CEREP
T1 sequence (P31645 whole entry): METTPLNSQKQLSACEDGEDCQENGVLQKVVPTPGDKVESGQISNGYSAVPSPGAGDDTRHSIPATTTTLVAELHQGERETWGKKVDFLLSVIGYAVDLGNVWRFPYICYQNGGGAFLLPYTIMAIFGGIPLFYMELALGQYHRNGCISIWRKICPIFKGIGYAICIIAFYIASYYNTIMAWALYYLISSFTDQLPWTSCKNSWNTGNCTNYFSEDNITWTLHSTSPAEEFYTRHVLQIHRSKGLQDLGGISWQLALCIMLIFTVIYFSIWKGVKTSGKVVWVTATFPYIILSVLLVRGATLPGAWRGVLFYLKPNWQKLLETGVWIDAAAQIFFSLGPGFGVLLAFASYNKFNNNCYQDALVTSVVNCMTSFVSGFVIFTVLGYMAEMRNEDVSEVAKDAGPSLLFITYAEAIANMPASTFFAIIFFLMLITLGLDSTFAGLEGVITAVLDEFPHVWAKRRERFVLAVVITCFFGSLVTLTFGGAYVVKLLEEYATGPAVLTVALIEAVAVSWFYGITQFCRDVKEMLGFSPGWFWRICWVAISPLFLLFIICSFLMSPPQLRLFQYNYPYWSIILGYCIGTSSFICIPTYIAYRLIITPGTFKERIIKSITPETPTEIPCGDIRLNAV

5-HT1A (h) = 5-HT1A (h) (Homo sapiens, UniProt P08908); experiment: Cerep Express Panel, agonist radioligand; type: binding; conditions: read-out: % Inhibition of reference (10 µM)
Caco-2 cells = experiment: Caco-2 cell permeability assay; type: in vitro ADME
Description: The higher concentration (60 μM) required for cellular activity could be ascribed to different reasons: first to the partial competition with the co-factor 2-OG, the physiological intracellular concentrations of which could be up to […] levels ([Thirstrup et al., 2011]); second to an estimated moderate-to-low cell permeability of KDOAM25. […] Together these effects could explain the partial loss of potency observed in the IF cell assay.

EP4 (h) = EP4 (h) (Homo sapiens, UniProt P35408); experiment: Cerep Express Panel, agonist radioligand; type: binding; conditions: read-out: % Inhibition of reference (10 µM)
Sequence of EP4 (h) (P35408 whole entry): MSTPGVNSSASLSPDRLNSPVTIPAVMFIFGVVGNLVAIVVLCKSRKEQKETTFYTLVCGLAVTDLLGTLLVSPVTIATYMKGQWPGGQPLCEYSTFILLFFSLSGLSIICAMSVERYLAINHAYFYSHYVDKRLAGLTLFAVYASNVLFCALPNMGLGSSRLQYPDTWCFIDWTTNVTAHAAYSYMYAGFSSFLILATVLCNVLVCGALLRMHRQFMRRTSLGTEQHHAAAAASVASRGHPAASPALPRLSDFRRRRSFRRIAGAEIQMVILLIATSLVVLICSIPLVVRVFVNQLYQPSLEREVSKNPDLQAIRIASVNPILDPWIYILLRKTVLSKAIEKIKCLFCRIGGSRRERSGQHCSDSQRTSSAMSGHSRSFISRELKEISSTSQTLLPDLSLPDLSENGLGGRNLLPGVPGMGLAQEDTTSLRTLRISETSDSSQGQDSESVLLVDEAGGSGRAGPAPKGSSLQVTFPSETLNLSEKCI

Na+ channel (site 2) = experiment: Cerep Express Panel, antagonist radioligand; type: binding; conditions: 10 µM
mu (MOP) (h) = mu (MOP) (h) (Homo sapiens, UniProt P35372); experiment: Cerep Express Panel, agonist radioligand; type: binding; conditions: read-out: % Inhibition of reference (10 µM)
Sequence of mu (MOP) (h) (P35372 whole entry): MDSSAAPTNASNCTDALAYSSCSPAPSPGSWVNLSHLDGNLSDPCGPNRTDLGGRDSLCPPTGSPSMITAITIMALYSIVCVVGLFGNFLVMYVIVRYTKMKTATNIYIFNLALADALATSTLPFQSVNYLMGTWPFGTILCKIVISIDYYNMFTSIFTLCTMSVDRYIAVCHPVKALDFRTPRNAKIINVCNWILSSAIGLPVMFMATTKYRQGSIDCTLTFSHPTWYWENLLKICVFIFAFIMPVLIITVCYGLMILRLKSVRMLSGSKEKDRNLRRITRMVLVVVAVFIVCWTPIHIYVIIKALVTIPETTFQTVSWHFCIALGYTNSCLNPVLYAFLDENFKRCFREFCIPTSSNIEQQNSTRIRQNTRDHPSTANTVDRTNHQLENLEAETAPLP

kappa (KOP) = kappa (KOP) (Rattus norvegicus, UniProt P34975); experiment: Cerep Express Panel, agonist radioligand; type: binding; conditions: read-out: % Inhibition of reference (10 µM)
Sequence of kappa (KOP) (P34975 whole entry): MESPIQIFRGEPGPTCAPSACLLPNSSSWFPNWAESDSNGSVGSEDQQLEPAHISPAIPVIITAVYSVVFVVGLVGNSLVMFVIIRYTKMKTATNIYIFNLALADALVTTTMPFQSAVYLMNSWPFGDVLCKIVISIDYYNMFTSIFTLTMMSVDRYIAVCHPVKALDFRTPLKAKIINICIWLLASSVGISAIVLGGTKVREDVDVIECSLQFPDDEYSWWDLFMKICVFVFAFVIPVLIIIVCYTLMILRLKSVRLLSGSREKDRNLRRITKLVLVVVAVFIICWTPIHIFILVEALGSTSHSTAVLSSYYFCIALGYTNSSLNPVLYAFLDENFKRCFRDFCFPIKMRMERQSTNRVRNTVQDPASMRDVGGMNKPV

Cl- channel (GABA-gated) = experiment: Cerep Express Panel, antagonist radioligand; type: binding
[2] = target: T2, norepinephrine transporter (h) (Homo sapiens, UniProt P23975); experiment: Cerep Express Panel, antagonist radioligand; type: binding; conditions: read-out: % Inhibition of reference (10 µM)
T2 construct: CEREP
T2 sequence (P23975 whole entry): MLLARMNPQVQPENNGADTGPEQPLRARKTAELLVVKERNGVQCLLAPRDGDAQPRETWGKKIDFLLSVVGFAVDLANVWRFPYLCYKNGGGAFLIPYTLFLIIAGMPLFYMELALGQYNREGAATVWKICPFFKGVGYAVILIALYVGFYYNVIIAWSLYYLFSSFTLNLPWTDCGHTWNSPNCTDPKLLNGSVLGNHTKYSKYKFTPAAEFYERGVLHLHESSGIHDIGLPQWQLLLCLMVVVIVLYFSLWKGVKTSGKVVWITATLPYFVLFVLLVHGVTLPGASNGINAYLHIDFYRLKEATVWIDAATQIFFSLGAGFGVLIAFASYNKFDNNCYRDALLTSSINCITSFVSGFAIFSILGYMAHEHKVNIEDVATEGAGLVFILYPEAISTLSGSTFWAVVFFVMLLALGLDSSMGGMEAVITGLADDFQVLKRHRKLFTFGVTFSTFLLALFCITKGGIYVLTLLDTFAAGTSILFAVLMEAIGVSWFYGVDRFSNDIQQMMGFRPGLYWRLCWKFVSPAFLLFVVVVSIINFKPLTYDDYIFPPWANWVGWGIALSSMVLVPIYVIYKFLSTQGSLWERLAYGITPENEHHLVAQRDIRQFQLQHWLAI

KDM4C = target: T3, KDM4C (Homo sapiens, UniProt Q9H3R0); experiment: 2-Oxoglutarate oxygenase assay panel, AlphaScreen assay; type: biochemical; conditions: AlphaScreen assay; ± SEM
T3 sequence (Q9H3R0 1-1056): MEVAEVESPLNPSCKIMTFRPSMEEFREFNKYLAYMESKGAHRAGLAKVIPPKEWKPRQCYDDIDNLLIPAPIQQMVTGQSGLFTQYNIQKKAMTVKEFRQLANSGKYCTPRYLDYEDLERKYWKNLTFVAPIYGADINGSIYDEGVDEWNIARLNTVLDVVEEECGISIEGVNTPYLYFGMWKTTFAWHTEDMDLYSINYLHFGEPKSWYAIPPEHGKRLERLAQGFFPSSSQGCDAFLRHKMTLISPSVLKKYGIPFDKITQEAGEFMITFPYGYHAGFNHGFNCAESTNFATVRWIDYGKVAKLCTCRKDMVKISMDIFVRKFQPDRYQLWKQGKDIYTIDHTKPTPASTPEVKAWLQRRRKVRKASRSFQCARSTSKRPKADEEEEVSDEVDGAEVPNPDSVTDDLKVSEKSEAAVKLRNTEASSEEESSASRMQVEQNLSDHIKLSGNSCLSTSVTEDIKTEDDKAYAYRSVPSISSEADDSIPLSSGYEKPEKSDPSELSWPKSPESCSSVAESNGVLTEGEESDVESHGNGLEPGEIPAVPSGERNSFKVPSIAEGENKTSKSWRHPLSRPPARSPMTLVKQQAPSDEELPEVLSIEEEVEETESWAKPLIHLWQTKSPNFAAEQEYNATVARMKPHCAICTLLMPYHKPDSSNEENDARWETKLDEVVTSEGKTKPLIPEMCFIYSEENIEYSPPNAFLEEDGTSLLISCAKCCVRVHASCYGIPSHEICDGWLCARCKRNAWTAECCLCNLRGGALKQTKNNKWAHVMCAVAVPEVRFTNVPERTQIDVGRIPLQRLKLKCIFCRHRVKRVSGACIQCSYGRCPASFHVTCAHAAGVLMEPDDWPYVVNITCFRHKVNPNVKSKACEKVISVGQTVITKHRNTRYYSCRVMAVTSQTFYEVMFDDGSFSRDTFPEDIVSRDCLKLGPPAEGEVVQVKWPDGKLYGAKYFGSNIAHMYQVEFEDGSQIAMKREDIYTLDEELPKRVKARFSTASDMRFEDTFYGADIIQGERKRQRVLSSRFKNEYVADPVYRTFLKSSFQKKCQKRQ

Y1 (h) = Y1 (h) (Homo sapiens, UniProt P25929); experiment: Cerep Express Panel, agonist radioligand; type: binding; conditions: read-out: % Inhibition of reference (10 µM)
Sequence of Y1 (h) (P25929 whole entry): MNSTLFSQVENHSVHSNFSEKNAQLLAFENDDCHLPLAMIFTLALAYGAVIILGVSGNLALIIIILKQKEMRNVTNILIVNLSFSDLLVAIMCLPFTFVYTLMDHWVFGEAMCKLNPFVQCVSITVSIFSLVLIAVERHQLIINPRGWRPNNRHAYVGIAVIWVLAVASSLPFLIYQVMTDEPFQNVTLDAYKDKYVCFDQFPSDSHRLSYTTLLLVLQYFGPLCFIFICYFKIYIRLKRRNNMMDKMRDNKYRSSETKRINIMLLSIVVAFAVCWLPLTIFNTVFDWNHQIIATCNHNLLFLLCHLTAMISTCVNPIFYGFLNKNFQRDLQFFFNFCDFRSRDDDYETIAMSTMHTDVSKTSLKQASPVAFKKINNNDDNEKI

KDM3A = KDM3A (Homo sapiens, UniProt Q9Y4C1); experiment: 2-Oxoglutarate oxygenase assay panel, AlphaScreen assay
Sequence of KDM3A (Q9Y4C1 whole entry): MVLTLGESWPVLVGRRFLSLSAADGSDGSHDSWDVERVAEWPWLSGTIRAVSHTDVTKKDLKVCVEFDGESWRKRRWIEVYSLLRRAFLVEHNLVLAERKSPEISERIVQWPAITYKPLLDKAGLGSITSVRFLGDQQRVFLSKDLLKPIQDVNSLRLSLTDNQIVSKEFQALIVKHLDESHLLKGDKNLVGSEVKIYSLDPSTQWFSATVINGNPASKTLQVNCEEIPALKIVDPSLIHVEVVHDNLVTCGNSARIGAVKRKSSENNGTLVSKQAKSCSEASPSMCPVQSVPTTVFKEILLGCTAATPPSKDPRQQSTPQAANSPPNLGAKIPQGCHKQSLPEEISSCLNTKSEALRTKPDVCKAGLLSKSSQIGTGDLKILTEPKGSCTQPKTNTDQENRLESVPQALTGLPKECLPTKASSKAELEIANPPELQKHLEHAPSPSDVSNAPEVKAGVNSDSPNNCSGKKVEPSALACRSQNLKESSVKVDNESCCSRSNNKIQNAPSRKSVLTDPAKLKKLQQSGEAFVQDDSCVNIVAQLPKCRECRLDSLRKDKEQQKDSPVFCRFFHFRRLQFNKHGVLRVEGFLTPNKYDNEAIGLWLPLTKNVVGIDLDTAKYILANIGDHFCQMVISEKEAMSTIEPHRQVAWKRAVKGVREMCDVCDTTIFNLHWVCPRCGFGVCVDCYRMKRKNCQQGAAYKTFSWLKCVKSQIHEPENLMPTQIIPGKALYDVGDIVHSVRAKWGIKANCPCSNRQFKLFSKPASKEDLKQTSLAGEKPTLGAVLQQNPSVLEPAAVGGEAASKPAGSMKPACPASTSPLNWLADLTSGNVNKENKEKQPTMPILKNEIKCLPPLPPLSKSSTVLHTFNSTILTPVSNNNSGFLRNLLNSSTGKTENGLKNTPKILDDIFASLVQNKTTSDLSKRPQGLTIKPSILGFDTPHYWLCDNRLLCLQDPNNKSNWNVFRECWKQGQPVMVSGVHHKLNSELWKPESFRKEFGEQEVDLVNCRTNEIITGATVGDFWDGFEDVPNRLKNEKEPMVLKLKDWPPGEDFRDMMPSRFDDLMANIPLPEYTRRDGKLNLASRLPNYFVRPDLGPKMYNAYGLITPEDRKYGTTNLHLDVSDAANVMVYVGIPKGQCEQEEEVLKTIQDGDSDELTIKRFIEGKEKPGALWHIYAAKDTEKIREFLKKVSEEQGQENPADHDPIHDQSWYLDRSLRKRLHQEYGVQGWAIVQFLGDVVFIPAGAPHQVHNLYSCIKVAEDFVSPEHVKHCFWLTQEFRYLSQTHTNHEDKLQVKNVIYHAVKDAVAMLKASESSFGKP

[3] = Liver microsomes stability; type: in vitro ADME; conditions: mouse liver microsomes
beta 2 (h) = beta 2 (h) (Homo sapiens, UniProt P07550); experiment: Cerep Express Panel, agonist radioligand; type: binding; conditions: read-out: % Inhibition of reference (10 µM)
Sequence of beta 2 (h) (P07550 whole entry): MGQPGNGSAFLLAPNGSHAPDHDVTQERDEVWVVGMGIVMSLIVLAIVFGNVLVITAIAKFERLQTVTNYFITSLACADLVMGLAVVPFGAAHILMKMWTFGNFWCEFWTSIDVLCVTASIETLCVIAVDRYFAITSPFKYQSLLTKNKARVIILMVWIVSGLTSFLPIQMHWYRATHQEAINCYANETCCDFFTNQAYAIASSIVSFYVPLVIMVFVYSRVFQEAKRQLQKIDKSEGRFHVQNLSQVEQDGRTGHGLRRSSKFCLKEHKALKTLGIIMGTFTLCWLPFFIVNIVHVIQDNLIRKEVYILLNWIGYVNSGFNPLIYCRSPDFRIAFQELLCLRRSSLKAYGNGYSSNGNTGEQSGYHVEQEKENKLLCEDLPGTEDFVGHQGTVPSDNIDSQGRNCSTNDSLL

PHF8 = PHF8 (Homo sapiens, UniProt Q9UPP1); experiment: 2-Oxoglutarate oxygenase assay panel, AlphaScreen assay; type: biochemical; conditions: ± SEM
KV channel = experiment: Cerep Express Panel, antagonist radioligand; type: binding

CCN(CCN(C)C)C(=O)CNCc1cc(C(N)=O)ccn1 [KDOAM-25]
PAMPA pH 5 (PAMPA; pH 5): < 0.3
PAMPA pH 6.5 (PAMPA; pH 6.5): < 0.23
PAMPA pH 7.4 (PAMPA; pH 7.4): < 0.23
inhibition of endogenous KDM5 demethylases, potency in words [1]: potencies similar to those seen in the overexpression assay
inhibition at 10 µM (AT1 (h)): -7%
inhibition at 10 µM (5-HT transporter (h)): -2%
inhibition at 10 µM (5-HT1A (h)): -7%
Caco-2 A-B (Caco-2 cells): < 0.76
Caco-2 B-A (Caco-2 cells): < 0.76
Caco-2 permeability, in words (Caco-2 cells; passive permeation): low permeability region
inhibition at 10 µM (EP4 (h)): -15%
% Inhibition of reference (10 µM) (Na+ channel (site 2)): 7%
inhibition at 10 µM (mu (MOP) (h)): -2%
inhibition at 10 µM (kappa (KOP)): -3%
% Inhibition of reference (10 µM) (Cl- channel (GABA-gated)): -2%
inhibition at 10 µM [2]: -6%
pIC50 KDM4 C (KDM4C): 5.3 ± 0.28
inhibition at 10 µM (Y1 (h)): -7%
IC50 (KDM3A): 31.6 µM
intrinsic clearance, in words [3]: low intrinsic clearance
microsomal CLint ([3]; read-out: MLM Clint): 8.42 µL/min/mg
inhibition at 10 µM (beta 2 (h)): 5%
pIC50 PHF8 (PHF8): 5.0 ± 0.057
% Inhibition of reference (10 µM) (KV channel): -4%
